# Assay results from the supplement of paper PMC11451515.
# System: NOMO1
# Assay: cell viability relative to DMSO control; higher = less cytotoxic
# Settings: 48 h
# Outline: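 Three leukemia lines were tested: NOMO1 and SEM at 500 cells/well and P12-Ichikawa at 1000 cells/well. Each was adapted for at least four passages in each medium and seeded in 5 μl in 1536-well plates, and library compounds in DMSO were pin-dosed from 47 μM to 0.79 nM in 11 threefold steps. After 48 h at 37°C, CellTiter-Glo One luminescence was read. Viability is a percentage relative to DMSO wells on each plate, with cell-free wells as background.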
# [1] = HPLM + 10% dialyzed FBS, 0.000781 µM
# [2] = HPLM + 10% dialyzed FBS, 0.00234 µM
# [3] = HPLM + 10% dialyzed FBS, 0.00702 µM
# [4] = HPLM + 10% dialyzed FBS, 0.0211 µM
# [5] = HPLM + 10% dialyzed FBS, 0.0632 µM
# [6] = HPLM + 10% dialyzed FBS, 0.19 µM
# [7] = HPLM + 10% dialyzed FBS, 0.569 µM
# [8] = HPLM + 10% dialyzed FBS, 1.71 µM
# [9] = HPLM + 10% dialyzed FBS, 5.12 µM
# [10] = HPLM + 10% dialyzed FBS, 15.4 µM
# [11] = HPLM + 10% dialyzed FBS, 46.1 µM
# [12] = RPMI 5 mM glucose + 10% FBS, 0.000781 µM
# [13] = RPMI 5 mM glucose + 10% FBS, 0.00234 µM
# [14] = RPMI 5 mM glucose + 10% FBS, 0.00702 µM
# [15] = RPMI 5 mM glucose + 10% FBS, 0.0211 µM
# [16] = RPMI 5 mM glucose + 10% FBS, 0.0632 µM
# [17] = RPMI 5 mM glucose + 10% FBS, 0.19 µM
# [18] = RPMI 5 mM glucose + 10% FBS, 0.569 µM
# [19] = RPMI 5 mM glucose + 10% FBS, 1.71 µM
# [20] = RPMI 5 mM glucose + 10% FBS, 5.12 µM
# [21] = RPMI 5 mM glucose + 10% FBS, 15.4 µM
# [22] = RPMI 5 mM glucose + 10% FBS, 46.1 µM
# [23] = RPMI 5 mM glucose + 10% dialyzed FBS, 0.000781 µM
# [24] = RPMI 5 mM glucose + 10% dialyzed FBS, 0.00234 µM
# [25] = RPMI 5 mM glucose + 10% dialyzed FBS, 0.00702 µM
# [26] = RPMI 5 mM glucose + 10% dialyzed FBS, 0.0211 µM
# [27] = RPMI 5 mM glucose + 10% dialyzed FBS, 0.0632 µM
# [28] = RPMI 5 mM glucose + 10% dialyzed FBS, 0.19 µM
# [29] = RPMI 5 mM glucose + 10% dialyzed FBS, 0.569 µM
# [30] = RPMI 5 mM glucose + 10% dialyzed FBS, 1.71 µM
# [31] = RPMI 5 mM glucose + 10% dialyzed FBS, 5.12 µM
# [32] = RPMI 5 mM glucose + 10% dialyzed FBS, 15.4 µM
# [33] = RPMI 5 mM glucose + 10% dialyzed FBS, 46.1 µM
Compound,cell viability [1],cell viability [2],cell viability [3],cell viability [4],cell viability [5],cell viability [6],cell viability [7],cell viability [8],cell viability [9],cell viability [10],cell viability [11],cell viability [12],cell viability [13],cell viability [14],cell viability [15],cell viability [16],cell viability [17],cell viability [18],cell viability [19],cell viability [20],cell viability [21],cell viability [22],cell viability [23],cell viability [24],cell viability [25],cell viability [26],cell viability [27],cell viability [28],cell viability [29],cell viability [30],cell viability [31],cell viability [32],cell viability [33]
C[N]1N=CC2=C1C=C(C(=C2)OC3=CC=C(NC(=O)\C4=C\C=C(\C)N(C4=O)C5=CC=C(F)C=C5)C=C3F)C6=C[NH]N=C6,107%,131%,117%,126%,133%,141%,132%,125%,86.1%,25.3%,15.6%,113%,112%,111%,121%,127%,107%,116%,118%,104%,16.4%,11.9%,121%,117%,118%,108%,122%,125%,124%,115%,100%,30%,16.2%
N#CC1(c2ccc(NC(=O)c3cccnc3NCc3ccncc3)cc2)CCCC1,112%,110%,110%,121%,114%,98.4%,108%,95.2%,103%,91.4%,93.1%,99.5%,106%,99.2%,102%,113%,106%,97.8%,104%,103%,105%,98.1%,110%,105%,116%,115%,120%,109%,104%,106%,113%,104%,99.8%
O=[S+]([O-])(/N=C/c1c(O)ccc2ccccc12)c1cccs1,,,,,,,,,,,,113%,126%,111%,124%,129%,129%,114%,113%,126%,107%,126%,,,,,,,,,,,
C[C@H](NC(=O)Cc1cc(F)cc(F)c1)C(=O)N[C@@H]1C(=O)N(C)c2ccccc2-c2ccccc21,99%,107%,122%,126%,121%,123%,96.2%,118%,55.6%,9.2%,6.63%,107%,106%,115%,110%,120%,112%,116%,121%,109%,27.3%,8.18%,101%,109%,121%,120%,124%,117%,125%,114%,125%,63.6%,13.8%
CCC(=O)OC1CCC2C3CCC/4=C/C(=O)CC[C@@]4(C)C3CC[C@]12C (stereo partly specified),89.8%,112%,128%,120%,122%,118%,130%,136%,136%,129%,135%,,,,,,,,,,,,,,,,,,,,,,
CN(C)/[N+]([O-])=N/Oc1cc(ON[N+](=O)N2CCN(C(=O)c3cc(Cc4n[nH]c(=O)c5ccccc45)ccc3F)CC2)c([N+](=O)[O-])cc1[N+](=O)[O-],101%,94.9%,100%,100%,115%,119%,109%,104%,102%,126%,117%,99.1%,97.4%,103%,114%,99.4%,102%,113%,122%,119%,101%,106%,93.9%,112%,101%,107%,118%,114%,103%,109%,123%,115%,120%
NC(=O)c1cnc(-c2ccc(C3(N)CCC3)cc2)c(-c2ccccc2)c1,,,,,,,,,,,,119%,117%,126%,117%,136%,122%,128%,132%,127%,131%,76.9%,,,,,,,,,,,
COc1cccc2c(NCc3ccccc3)nc(-n3c(N)nc4ccccc43)nc12,85.6%,106%,94.9%,110%,129%,105%,115%,107%,107%,97%,18.8%,92.8%,96.2%,105%,105%,117%,107%,106%,101%,101%,102%,16.7%,91.2%,96.2%,119%,111%,111%,108%,103%,112%,100%,97.2%,23.3%
NC(=O)c1ccc(-c2nc(-c3ccc4c(c3)OCO4)c(-c3ccccn3)[nH]2)cc1,114%,135%,118%,134%,118%,132%,119%,123%,121%,120%,124%,121%,112%,127%,113%,126%,111%,124%,109%,108%,125%,112%,117%,108%,117%,114%,116%,110%,119%,116%,109%,113%,105%
